From ChEMBL document CHEMBL6092147, “Design of inhibitors of SARS-CoV-2 papain-like protease deriving from GRL0617: Structure-activity relationships” (Bioorg Med Chem, 2024) come the findings set out here.

Assay [1] has as its target T1, Replicase polyprotein 1ab (Severe acute respiratory syndrome coronavirus 2, UniProt P0DTD1). In words: Inhibition of SARS-CoV-2 wild type PLpro (1563 to 1878 residues) extracted from Escherichia coli Rosetta 2 (DE3) cells by Fluorescence polarization assay. A general note: Polarisation of emitted light reports the rotation of a fluorescent probe.
The target of assay [2] is T1, Replicase polyprotein 1ab. Put plainly: Inhibition of SARS-CoV-2 papain-like protease (PLpro) by enzymatic assay.
In assay [3] the target is T1, Replicase polyprotein 1ab. In words: Binding affinity to SARS-CoV-2 Main protease assessed as inhibition constant by SPR analysis. (In general: Surface plasmon resonance follows binding to a sensor surface in real time, without labels.)
Assay [4] concerns the target T1, Replicase polyprotein 1ab. Put plainly: Inhibition of SARS-CoV-2 3CL protease extracted from Escherichia coli BL21 (DE3) Rosetta cells using DabcylKNSTLQSGLRKE-Edan as substrate preincubated for 60 mins followed by substrate addition and measured after 20 mins by FRET assay.
Assay [5] has as its target T1, Replicase polyprotein 1ab. Put plainly: Binding affinity to SARS-CoV-2 3CL protease extracted from Escherichia coli BL21 (DE3) Rosetta cells assessed as dissociation constant.
Assay [6] deals with T1, Replicase polyprotein 1ab. In words: Inhibition of His-tagged SARS-CoV-2 papain-like protease (PLpro) incubated for 30 mins by FRET assay.
Assay [7] deals with T1, Replicase polyprotein 1ab. In words: Binding affinity to SARS-CoV-2 3CL protease assessed as dissociation constant by SPR analysis.
In assay [8] the target is T1, Replicase polyprotein 1ab. In words: Inhibition of SARS-CoV-2 3CL protease by FRET assay.
The target of assay [9] is T1, Replicase polyprotein 1ab. In words: Inhibition of N-terminal 6His-tagged SARS-CoV-2 wild type PLpro extracted from Escherichia coli BL21 (DE3) cells incubated for 60 mins by FRET assay.
In assay [10] the target is T1, Replicase polyprotein 1ab. Put plainly: Inhibition of SARS-CoV-2 PLpro using Ubiquitin-AMC as substrate by enzymatic assay.
In assay [11] the target is T1, Replicase polyprotein 1ab. Put plainly: Inhibition of SARS-CoV-2 papain-like protease (PLpro) by FRET analysis.
Assay [12] deals with T1, Replicase polyprotein 1ab. Put plainly: Inhibition of N-terminal 6-His-tagged SARS-CoV-2 PLpro BetaCoV/Wuhan/WIV04/2019 (1524 to 1883 residues) extracted from Escherichia coli BL21 (DE3) cells using Dabcyl-KTSAVLQ/SGFRKME as substrate pretreated for 30 mins followed by substrate addition measured for 1 hr by TR-FRET analysis. In general terms: In TR-FRET formats the signal depends on donor and acceptor labels being close together.

In assay [13] the target is T1, Replicase polyprotein 1ab. In words: Inhibition of SARS-CoV-2 wild type PLpro extracted from Escherichia coli Rosetta 2(DE3) cells by fluorescence based analysis.
In assay [14] the target is T1, Replicase polyprotein 1ab. Put plainly: Inhibition of C-terminal His-tagged SARS-CoV-2 papain-like protease (PLpro) (1564 to 1876 residues) extracted from Escherichia coli BL21 (DE3) cells using Dabcyl-KTSAVLQ/SGFRKME as substrate incubated for 60 mins by FRET assay.

The structures appear in SMILES notation.

In turn, `COc1cc(CNC(=O)C2CN(C(C)c3cccc4ccccc34)C2)ccn1` (racemic) had an IC50 in assay [1] of 27300 nM.

Consider `CCn1ccc(-c2cc(-c3cnn(CCOC)c3)cc([C@@H](C)NC(=O)c3cc(OCCN(C)C)ccc3C)c2)n1`, for which the half-inhibitory concentration (IC50) in assay [2] was determined as 160 nM. For the same molecule, the inhibition constant Ki in assay [3] was determined as 30 nM.

Turning to `CCC(C(=O)Nc1cc(NC2COC2)ccc1C)n1cc(F)cc2nc(SCc3ccc(F)cc3)nc1-2` (racemic), the 50% inhibitory concentration (IC50) in assay [4] came to 400 nM. Further, the Kd in assay [5] was determined as 400 nM.

The molecule `COc1cc(CNC(=O)C2CCN(C(C)c3cccc4ccccc34)CC2)ccn1` (racemic) had a concentration for half-maximal inhibition (IC50) in assay [1] of 1100 nM.

As to `C[C@H](c1cccc2ccccc12)N(C)Cc1ccc(OCC(N)=O)cc1`, 2840 nM corresponded to half-maximal inhibition in [6] (IC50).

Consider `CCC(C(=O)Nc1cc(NC2CCNC2)ccc1C)n1cc(Cl)cc2nc(SCc3ccc(F)cc3)nc1-2` (racemic), for which the Kd in assay [7] came out at 100 nM. Further, the half-maximal inhibitory concentration (IC50) in [8] stood at 70 nM.

For the molecule `Cc1ccc(OCCN(C)C)cc1C(=O)N[C@H](C)c1cc(-c2cnn(C)c2)cc(-c2cnn(C)c2)c1`, in assay [3], the Ki was 30 nM.

For the molecule `CCC(C(=O)Nc1cc(NC2CNC2)ccc1C)n1cc(Cl)cc2nc(SCc3ccc(F)cc3)nc1-2` (racemic), in [7], the Kd was determined as 100 nM. In assay [8], this molecule showed a concentration for half-maximal inhibition (IC50) of 90 nM.

As to `CCOc1ccc2ccccc2c1C(C)N1CCC(C(=O)NCc2ccnc(OC)c2)CC1` (racemic), in [9], the IC50 is over 98000 nM.

With `CCC(C(=O)Nc1cc(NC2CCNCC2)ccc1C)n1cc(Br)cc2nc(SCc3ccc(F)cc3)nc1-2` (racemic), the Kd in assay [7] turned out to be 170 nM. In addition, in assay [8], the IC50 was found to be 50 nM.

For the molecule `Cc1ccc(N)cc1CN[C@H](C)c1cccc2ccccc12`, in [10], half-maximal inhibition (IC50) was put at 41100 nM.

`CCC(C(=O)Nc1cc(NC2CCOC2)ccc1C)n1cc(Br)cc2nc(SCc3ccc(F)cc3)nc1-2` (racemic) displayed a 50% inhibitory concentration (IC50) in assay [4] of 500 nM. Moreover, the dissociation constant (Kd) in [5] worked out at 1400 nM.

As for `Cc1ccc(OCCN(C)C)cc1C(=O)N[C@H](C)c1cc(-c2cccs2)cc(-c2cccs2)c1`, the 50% inhibitory concentration (IC50) in assay [11] amounted to 60 nM. Further, in assay [3], the inhibition constant Ki amounted to 10 nM.

On to `CCC(C(=O)Nc1cc(NC2CCNC2)ccc1C)n1cccc2nc(SCc3ccc(F)cc3)nc1-2` (racemic), for which the dissociation constant Kd in assay [7] worked out at 250 nM.

The molecule `COc1cc(CNC(=O)C2CC3(C2)CN([C@H](C)c2cccc4ccccc24)C3)ccn1` came in with a 50% inhibitory concentration (IC50) in assay [1] of 5400 nM.

On to `C[C@H](c1cccc2ccccc12)N1CCC(C(=O)NCc2ccc(S(N)(=O)=O)cc2)CC1`, for which the IC50 in assay [12] stood at 600 nM.

For the molecule `C[C@H](c1cccc2ccccc12)N1CCC(C(=O)NCc2cc(F)cc(NC(=O)N3CCN(C)CC3)c2)CC1`, in assay [13], the IC50 stood at 990 nM.

Turning to `COc1cc(CNC(=O)C2CCN(C(C)c3c(OC)ccc4ccccc34)CC2)ccn1` (racemic), the IC50 in assay [9] was over 98000 nM.

For the molecule `CCC(C(=O)Nc1cc(NC2CNC2)ccc1C)n1cc(F)cc2nc(SCc3ccc(F)cc3)nc1-2` (racemic), the Kd in assay [7] was 270 nM. Further, in assay [8], the IC50 amounted to 200 nM.

`COc1cc(CNC(=O)C2CCN(C(C)c3c(C)sc4ccccc34)CC2)ccn1` (racemic) returned an IC50 in [9] of over 98000 nM.

Take `C[C@H](c1cccc2ccccc12)N(C)Cc1ccc2cccc(O)c2n1`: the 50% inhibitory concentration (IC50) in [14] is over 20000 nM.

In assay [10], `CC(=O)Nc1ccc(C)c(C(=O)NC(C)c2cccc3ccccc23)c1` (configuration not stated) registered an IC50 of 11000 nM.

Regarding `CCC(C(=O)Nc1cc(NC2CNC2)ccc1C)n1cc(Br)cc2nc(SCc3ccc(F)cc3)nc1-2` (racemic), the Kd in assay [7] was 100 nM. The molecule further showed a 50% inhibitory concentration (IC50) in assay [8] of 70 nM.

By IC50 is commonly meant the concentration that gives 50% inhibition. Usually Ki stands for the dissociation constant of the complex between target and ligand, obtained from inhibition or displacement. What is called Kd is the constant that tells how readily two partners part at equilibrium.
